{"source": "patent US20100130736A1", "about": "“METHODS OF CREATING AN INDEX” (priority 2008, published 2010)", "tested_on": "quiescent A431 cells", "assay": "Epic DMR agonist mode (primary profile) in quiescent A431 cells", "type": "cell-based, human", "text": "Epic® wavelength interrogation system (Corning Inc., Corning, N.Y.) was used for whole cell sensing. This system consists of a temperature-control unit, an optical detection unit, and an on-board liquid handling unit with robotics. The detection unit is centered on integrated fiber optics, and enables kinetic measures of cellular responses with a time interval of ±15 sec.\nFor biosensor cellular assays, molecule solutions were made by diluting the stored concentrated solutions with the HBSS (1× Hanks balanced salt solution, plus 20 mM Hepes, pH 7.1), and transferred into a 384 well polypropylene molecule storage plate to prepare a molecule source plate. Both molecule and marker source plates were made separately when a two-step assay was performed. In parallel, the cells were washed twice with the HBSS and maintained in 30 μl of the HBSS to prepare a cell assay plate. Both the cell assay plate and the molecule and marker source plate(s) were then incubated in the hotel of the reader system. After ˜1 hr of incubation the baseline wavelengths of all biosensors in the cell assay microplate were recorded and normalized to zero. Afterwards, a 2 to 10 minute continuous recording was carried out to establish a baseline, and to ensure that the cells reached a steady state. Cellular responses were then triggered by pipetting 10 μl of the marker solutions into the cell assay plate using the on-board liquid handler.\nA DMR index was generated for four ligand molecules. Quiescent A431 and proliferating A549 cells were separately exposed to the ligand molecules for about 1 hr to generate their primary profiles, followed by stimulation with each marker at a fixed concentration (as mentioned in FIGS. 7 and 8) for another 1 hr or so to generate secondary profiles of the molecule against the panels of markers in both types of cells. Next, one or more specific DMR parameters were chosen as a readout for plotting the DMR index of the molecule. For the pinacidil DMR response in A549, the amplitude of the N-DMR (i.e., the amplitude 30 min after stimulation) was chosen. […]"}
{"substance": "EGF: natural agonist for endogenous EGF receptor in A431", "values": [{"measurement": "EC80 to trigger the DMR signal", "setting": "fully quiescent A431 cells", "result": "~32", "unit": "nM"}, {"measurement": "DMR signal triggered", "setting": "fully quiescent A431 cells, EGF ~32 nM, three phases P-DMR, N-DMR, RP-DMR, FIG. 4", "result": "distinct and robust DMR signal"}, {"measurement": "DMR response as a function of dose", "setting": "quiescent A431 cells, data not shown", "result": "dose-dependent response"}]}
